Here are results for four compounds from ChEMBL document CHEMBL1201862, “PubChem BioAssay data set” (2004).

SMILES strings stand for the structures.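 96-well plates; 48 h exposure; 5 concentrations. Endpoints by linear interpolation between flanking doses. Not reached: highest tested concentration assigned. GI50: concentration for 50% inhibition of growth.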 Active and inactive are the calls of the source. Rule as the data show it: active = GI50 up to about 1.1 µM and inactive = higher.

Test systems include A498; CCRF-CEM; HCC 2998; HCT-116; HCT-15; HT-29; Hs-578T; IGROV-1; OVCAR-3; OVCAR-5; RPMI-8226; SF-539; SK-MEL-28; SK-OV-3; SN12C; SNB-75; U-251; UACC-257; UACC-62; UO-31.
Assay in all cases: DTP human tumour cell line panel, 48 h

As to `COC(=O)c1ccc(C)cc1C1CN=NC12Cc1cc(C)ccc1C2=O` (stereo not given), the GI50 (in general, the concentration that inhibits growth by half) is 12.1 µM (inactive) in the experiment on A498; 15.9 µM (inactive) in the experiment on CCRF-CEM; 23.8 µM (inactive) in the experiment on HCC 2998; 7.64 µM (inactive) in the experiment on HCT-116; 5.24 µM in the experiment on HCT-15; 3.32 µM (inactive) with HT-29. For the same compound, the GI50 with Hs-578T is 8.67 µM (inactive); with IGROV-1, 8.85 µM (inactive); in the experiment with OVCAR-3, 9.14 µM (inactive); in the experiment on OVCAR-5, 30 µM (inactive); with RPMI-8226, 16.4 µM (inactive); in the experiment with SF-539, 13.9 µM (inactive). Moreover, the GI50 in the experiment on SK-MEL-28 is 23.2 µM (inactive); with SK-OV-3 it was 23.2 µM (inactive); with SN12C, 23.9 µM (inactive); with SNB-75, 8.61 µM (inactive); with U-251, 11.7 µM (inactive); in the experiment on UACC-257, 17.7 µM (inactive). Besides, the GI50 with UACC-62 was 8 µM (inactive); in the experiment on UO-31, 24 µM (inactive).

In the case of `C[C@H]1CCC/C=C/[C@@H]2C[C@H](OC(=O)CN(C)C)C[C@H]2[C@H](O)/C=C/C(=O)O1`, the GI50 with A498 is 0.083 µM (active); in the experiment with CCRF-CEM, 0.284 µM (active); in the experiment with HCC 2998 it was 0.0612 µM (active); with HCT-116, 0.242 µM (active); in the experiment with HCT-15 it was 0.188 µM; in the experiment with HT-29, 0.105 µM (active). The concentration for 50% growth inhibition (GI50) was 0.0458 µM (active) in the experiment on Hs-578T; 0.57 µM (active) with IGROV-1; 0.169 µM (active) in the experiment on OVCAR-3; 0.102 µM (active) in the experiment with OVCAR-5; 0.303 µM (active) in the experiment with RPMI-8226; 0.148 µM (active) with SF-539. The GI50 is 0.138 µM (active) in the experiment on SK-MEL-28; 0.0586 µM (active) in the experiment on SK-OV-3; 0.158 µM (active) in the experiment on SN12C; 0.155 µM (active) in the experiment with SNB-75; 0.254 µM (active) in the experiment on U-251; 0.109 µM (active) in the experiment on UACC-257. Besides, the concentration for 50% growth inhibition (GI50) in the experiment with UACC-62 is 0.108 µM (active); in the experiment on UO-31, 0.0581 µM (active).

In the case of `Cc1cc(-c2nc3ccc(F)cc3s2)ccc1NC(=O)[C@H](C)N`, the GI50 with A498 was 9.02 µM (inactive); in the experiment with CCRF-CEM, 1.64 µM (inactive); in the experiment with HCC 2998, 0.428 µM (active); in the experiment with HCT-116 it was 3.28 µM (inactive); with HCT-15, 3.79 µM; with HT-29 it was 2.56 µM (inactive). Further, the GI50 with Hs-578T was 10.8 µM (inactive); in the experiment with IGROV-1, 2 µM (inactive); in the experiment on OVCAR-3, 8.59 µM (inactive); in the experiment on OVCAR-5, 4.56 µM (inactive); in the experiment on RPMI-8226 it was 3.11 µM (inactive); in the experiment with SF-539 it was 6.32 µM (inactive). The GI50 with SK-MEL-28 was 15.4 µM (inactive); in the experiment with SK-OV-3, 13.6 µM (inactive); with SN12C, 14.8 µM (inactive); in the experiment with SNB-75, 11.8 µM (inactive); with U-251, 3.48 µM (inactive); in the experiment with UACC-257, 5.04 µM (inactive). The values for the GI50 in the experiment on UACC-62 and in the experiment with UO-31 were 1.88 µM (inactive) and 4.14 µM (inactive), respectively.

Take `CC1(C)CC(=O)C2=C(C1)C(c1ccccc1Cl)C1C(=O)CC(C)(C)CC1(O)O2` (stereo not given): the GI50 was > 100 µM (inactive) in the experiment with A498; 26.8 µM (inactive) in the experiment on CCRF-CEM; > 100 µM (inactive) with HCC 2998; 26.9 µM (inactive) in the experiment with HCT-116; 42.5 µM in the experiment on HCT-15; > 100 µM (inactive) in the experiment on HT-29. Moreover, the GI50 is > 72.3 µM (inactive) in the experiment with Hs-578T; > 100 µM (inactive) in the experiment on IGROV-1; > 100 µM (inactive) in the experiment on OVCAR-3; > 100 µM (inactive) with OVCAR-5; > 84.1 µM (inactive) in the experiment on RPMI-8226; 69 µM (inactive) with SF-539. The GI50 in the experiment with SK-MEL-28 was > 100 µM (inactive); with SK-OV-3, > 100 µM (inactive); in the experiment on SN12C, > 100 µM (inactive); in the experiment with SNB-75 it was > 78.3 µM (inactive); in the experiment on U-251, > 100 µM (inactive); with UACC-257, > 49.9 µM (inactive). Besides, the GI50 in the experiment on UACC-62 was > 64.7 µM (inactive); in the experiment with UO-31, > 100 µM (inactive).
